Results taken from patent US5620955A, “Bombesin receptor antagonists and uses thereof” (Peptide Technologies Corporation, priority 1993, dated 1997).
Read-outs that look alike come from different tables or passages of the source. Non-standard residues stand in square brackets, D forms with d. Residues, ends and D or L forms follow the SMILES beside them. *: point of attachment. BrAc = O=C(CBr)*

Columns and labels:
NCI-H720 = assay: Clonagenic assay, colony formation of NCI-H720; assay type: cell-based, human; conditions: for colony formation: NCI-H720; for colony formation (in words): second SCLC line (NCI-H270 in the text, NCI-H720 in Table 4), 1 μM
Protocol: (§1) On the day of the assay, cells were harvested, centrifuged and suspended in the buffer. The agarose cloning system consisted of 3 ml of 0.5% agarose in SIT medium with 5% fetal bovine serum in six well plates. To a top layer, consisting of 3 ml HITES medium in 0.3% agarose, the peptides at two times concentration and 6×10^4 single viable cells, were added. For each peptide concentration, triplicate wells were plated. After two weeks, 1 ml of 0.1% p-iodo-nitrotetrazolium violet was added, and after 16 hours at 37° C., the plates were screened for colony formation; the number of colonies larger than […] in diameter were counted using a Bausch and Lomb Omnicon image analysis system.

BBN receptor [1] = molecular target: T1, BBN receptor (Homo sapiens, UniProt P30550); assay: Cytosolic Ca++ assay in SCLC cell line NCI-H345; assay type: cell-based; design: key: antagonized (A); had no effect (--) on the ability of 10 nM BBN to; conditions: compound 10 μM; 10 nM BBN elevation of cytosolic Ca++
T1 construct: endogenous in cells; host or cells: NCI-H345 (human SCLC)
Protocol: SCLC cell line NCI-H345 was cultured for two days in medium containing 10^-8 M hydrocortisone, 5 μg/ml bovine insulin, 10 μg/ml human transferrin, 10^-8 M β-estradiol and 3×10^-8 M Na2 SeO3. The cells were harvested and washed, resuspended in medium containing 20 mM HEPES, pH 7.4, and loaded with 5 μM Fura 2 AM (Calbiochem) for 30 minutes. The cells were centrifuged at 150×g for 10 minutes to remove extracellular dye and resuspended and placed in a spectrofluorometer cell equipped with stirring and 37° C. heating. The emission was read at 510 nm with 340 excitation (Moody et al., Biochem. Biophys. Res. Commun. 147:189 (1987)). The response of compounds at 5 μM was measured initially as a screen and compared to that of 10 nM BBN. The response of varying concentrations of peptide (nM to μM) in the presence of 10 nM BBN was determined.

BBN receptor [2] = molecular target: T1, BBN receptor; assay: Inhibition of [125I]Tyr4-BBN binding to SCLC NCI-H345 membranes; conditions: for inhibition of BBN binding to SCLC membranes (in words): radiolabelled Tyr4-BBN
Protocol: (§2) Acinar cells from rat pancreas bind BBN and secrete amylase when treated with BBN. The ability of potential antagonists to bind to rat pancreatic acinar cells was examined by determining the ability of the compounds to inhibit the binding of radiolabelled BBN. […] Finally, antagonist activity of the compounds was determined by measuring the ability of compounds to prevent the release of amylase from cells in response to BBN. […] This cell line was also used to evaluate biological activities of potential antagonists derived from the structures of BBN and GRP. The binding of synthetic compounds to cellular membranes prepared from NCI-H345 was determined. The ability of potential antagonists to block the BBN-stimulated increase in cytosolic levels of Ca^++ was determined. Compounds showing inhibition were further tested to determine the effect on growth of two human SCLC cell lines in culture.
Potential antagonists were also evaluated for their ability to inhibit the binding of radiolabelled Tyr^4 -BBN to SCLC membranes and for their effects on BBN signal transduction in SCLC cells.

NCI-H345 [3] = assay: Clonagenic assay, colony formation of NCI-H345; assay type: cell-based, human; design: key to Growth: significantly reduced (R); had no effect (--) on th; conditions: for reversal of colony inhibition by BBN (in words): 1 μM antagonist, 10 nM BBN added, both cell lines; for colony formation (in words): NCI-H345, 1 μM; for colony formation: NCI-H345, antagonist 1 μM plus BBN 10 nM; for Growth: compound 1 μM, clonal growth of a human tumor cell line
Protocol: as §1, with “The effect of 1 to 1000 nM concentration of peptides on growth of NCI-H345 colonies stimulated by 10 nM BBN was measured in the agarose cloning system (Mahoud et al., Cancer Res. 51:1798 (1991); Staley et al., Peptides 12:145-149 (1991)). […] On” for “On”

NCI-H345 [4] = assay: Clonagenic assay, colony formation of NCI-H345; assay type: cell-based, human; conditions: antagonist 1 μM alone, mean ± S.E. of 3
BBN receptor [5] = molecular target: T2, BBN receptor (Rattus norvegicus, UniProt P52500); assay: Stimulation of amylase release from rat pancreatic acinar cells by the compound alone (agonist test); assay type: cell-based
BBN receptor [6] = molecular target: T2, BBN receptor; assay: Inhibition of 125I bombesin binding to rat pancreatic acinar cells
Protocol: Inhibition of equilibrium binding of ^125 I labeled bombesin to acinar membranes by the compounds was determined. The Kd was determined by dividing IC50 (the concentration of synthetic compound required to inhibit 50% of the specific binding of labelled BBN) by the concentration of radiolabeled peptide.

BBN receptor [7] = molecular target: T2, BBN receptor; assay: Inhibition of bombesin-stimulated amylase release from rat pancreatic acini; assay type: cell-based; conditions: half-maximal inhibition of bombesin-stimulated amylase release from acini; mean ± s.e.m.
Protocol: as §2
The incubation solution contained 1% albumin and the wash solution contained 0.2% albumin. The solution was equilibrated with 100% O2. Dispersed acini were suspended in 20 ml of solution. Samples of 1 ml were incubated in the presence of various concentrations of compounds in the presence of 1 nM bombesin. After the first incubation the samples were washed 4 times with wash solution at 4° C. The acini were then resuspended in fresh incubation buffer and incubated at 37° C. Amylase release was measured by the Phadebas reagent. Amylase secretion during a given incubation was expressed as the percentage of amylase present in the acini at the beginning of that incubation that was released into the extracellular medium.

bombesin receptor = conditions: inhibits growth with moderate potency; literature value; cited from earlier work
[8] = antagonist 1 μM alone, mean ± S.E. of 3

T2 sequence (P52500 whole entry): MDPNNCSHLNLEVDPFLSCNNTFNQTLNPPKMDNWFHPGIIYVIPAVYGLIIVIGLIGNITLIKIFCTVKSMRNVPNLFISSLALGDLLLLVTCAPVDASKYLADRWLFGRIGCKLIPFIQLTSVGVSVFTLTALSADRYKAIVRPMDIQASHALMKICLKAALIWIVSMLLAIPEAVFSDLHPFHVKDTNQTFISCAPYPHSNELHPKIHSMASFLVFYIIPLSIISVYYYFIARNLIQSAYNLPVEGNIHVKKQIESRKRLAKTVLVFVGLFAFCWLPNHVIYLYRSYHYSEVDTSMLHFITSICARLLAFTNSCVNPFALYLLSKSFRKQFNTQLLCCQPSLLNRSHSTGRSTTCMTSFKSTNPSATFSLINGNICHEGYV
T1 sequence (P30550 whole entry): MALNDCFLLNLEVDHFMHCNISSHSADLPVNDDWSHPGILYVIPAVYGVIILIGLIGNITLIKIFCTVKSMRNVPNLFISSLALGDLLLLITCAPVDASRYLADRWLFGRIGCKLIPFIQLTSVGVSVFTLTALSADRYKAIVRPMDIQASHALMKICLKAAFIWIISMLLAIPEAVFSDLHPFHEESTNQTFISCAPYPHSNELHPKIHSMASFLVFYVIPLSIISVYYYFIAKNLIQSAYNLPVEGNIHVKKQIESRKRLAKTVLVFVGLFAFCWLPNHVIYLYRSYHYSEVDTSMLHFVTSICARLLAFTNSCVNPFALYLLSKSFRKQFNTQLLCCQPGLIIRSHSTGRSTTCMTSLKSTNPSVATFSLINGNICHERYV

Row | IC50 (BBN receptor [2]; 50% inhibition of specific [125I]Tyr4-BBN binding, NCI-H345, read-out: IC50) [nM] | EC50 (BBN receptor [5]) [nM] | Kd (BBN receptor [6]; inhibition of 125I bombesin binding, IC50 divided by radioligand concentration) [nM] | binding to rat pancreatic acinar cells (in words) (BBN receptor [6]; inhibition of radiolabelled BBN binding) | IC50 (BBN receptor [7]) [nM] | Molecule | colony formation (NCI-H720; [8]) [Colony per mm^2] | colony formation (NCI-H720; antagonist 1 μM plus BBN 10 nM) [Colony per mm^2] | colony formation (in words) (NCI-H720) | Ca++ effect (BBN receptor [1]) | IC50 (BBN receptor [2]) [nM] | inhibition of BBN binding to SCLC membranes (in words) (BBN receptor [2]) | reversal of colony inhibition by BBN (in words) (NCI-H345 [3]) | colony formation (in words) (NCI-H345 [3]) | colony formation (NCI-H345 [3]) [Colony per mm^2] | Growth (NCI-H345 [3]) | colony formation (NCI-H345 [4]) [Colony per mm^2] | Ki (bombesin receptor) [nM]
1 |  |  |  |  |  | CCOC(=O)[C@H](CC(C)C)NC(=O)[C@H](Cc1c[nH]cn1)NC(=O)[C@@H](C)NC(=O)[C@@H](NC(=O)[C@H](C)NC(=O)[C@H](Cc1c[nH]c2ccccc12)NC(=O)[C@H](CCC(N)=O)NC(=O)[C@H](CC(N)=O)NC(=O)CBr)C(C)C [PTC 816] (BrAc-NQWAV[dA]HL-OEt) | 37 ± 6 | 66 ± 8 | reduce the amount of colony formation | A | 55 | potent inhibitors of BBN binding | can be reversed | reduce the amount of colony formation | 52 ± 3 | R | 27 ± 4 | 
2 | 25 | > 3000 | 8.1 ± 1.8 | did bind to the cells | 4.9 ± 0.1 | CCOC(=O)[C@H](CC(C)C)NC(=O)[C@H](Cc1c[nH]cn1)NC(=O)[C@@H](C)NC(=O)[C@@H](NC(=O)[C@H](C)NC(=O)[C@H](Cc1c[nH]c2ccccc12)NC(=O)[C@H](Cc1c[nH]cn1)NC(C)=O)C(C)C [PTC 818] (Ac-HWAV[dA]HL-OEt) | 36 ± 4 | 62 ± 7 | reduce the amount of colony formation | A |  | potent inhibitors of BBN binding | can be reversed | reduce the amount of colony formation | 57 ± 6 | R | 20 ± 5 | 
3 |  |  |  |  |  | [Psi^13,14, Leu^14 ]BBN |  |  |  |  |  |  |  |  |  |  |  | 30
